Assay results as given in patent US6706716B2, “Compounds specific for the human α1d adrenergic receptor and uses thereof” (Synaptic Pharmaceutical Corporation, priority 1998, dated 2004).

How the values were obtained:
human 5-HT1a receptor = target: T1, human 5-HT1a receptor (Homo sapiens, UniProt P08908); assay: Competition binding ([3H]-8-OH-DPAT) at cloned human 5-HT1a receptor; settings: COS-7 cell membranes, read-out: Binding affinities (pKi) 5-HT1a (converted)
T1 construct: receptor open reading frames and variable non-coding 5′- and 3′-regions, was cloned into the eukaryotic expression vector pCEXV-3; expressed in transfected cells; host or cells: COS-7 cells, transient (DEAE-dextran); a deposited line 5-HT1A-3 (ATCC CRL 11889) is also named
T1 sequence (P08908 1-422): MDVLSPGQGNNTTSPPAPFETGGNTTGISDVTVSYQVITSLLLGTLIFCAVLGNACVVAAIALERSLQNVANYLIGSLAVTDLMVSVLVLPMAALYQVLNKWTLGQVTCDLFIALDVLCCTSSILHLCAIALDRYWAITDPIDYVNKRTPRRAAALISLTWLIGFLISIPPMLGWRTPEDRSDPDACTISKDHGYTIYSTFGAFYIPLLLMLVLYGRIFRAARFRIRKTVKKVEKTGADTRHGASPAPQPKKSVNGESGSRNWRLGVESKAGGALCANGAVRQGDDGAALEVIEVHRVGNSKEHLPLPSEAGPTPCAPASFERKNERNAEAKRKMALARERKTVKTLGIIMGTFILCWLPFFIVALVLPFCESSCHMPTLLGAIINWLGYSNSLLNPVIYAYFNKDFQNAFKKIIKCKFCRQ
Procedure: (§1) First, conditions were determined which allowed measurement of the specific binding of a compound known to bind to the receptor. Then, the binding of the known compound to the receptor in membrane preparations was evaluated in the presence of several different concentrations of the test compound.
(§2) These cell lines were prepared by transfecting the cloned cDNA or cloned genomic DNA or constructs containing both genomic DNA and cDNA encoding the human receptors as described below.
The cDNA corresponding to the ^5-HT1a receptor open reading frames and variable non-coding 5′- and 3′-regions, was cloned into the eukaryotic expression vector pCEXV-3. These constructs were transfected transiently into COS-7 cells by the DEAE-dextran method. Cells were harvested after 72 hours and lysed by sonication in 5 mM Tris-HCl, 5 mM EDTA, pH 7.5. The cell lysates were centrifuged at 1000 rpm for 5 minutes at 4° C., and the supernatant was centrifuged at 30,000×g for 20 minutes at 4° C. The pellet was suspended in 50 mM Tris-HCl buffer (pH 7.7 at room temperature) containing 10 mM MgSO4, 0.5 mM EDTA, and 0.1% ascorbate. The affinity of compounds at 5-HT1a receptors were determined in equilibrium competition binding assays using [^3H]-8-OH-DPAT. Nonspecific binding was defined by the addition of 10 μM mianserin. The bound radioligand was separated by filtration through GF/B filters using a cell harvester.

[1] = target: T2, human α1d adrenergic receptor (Homo sapiens, UniProt P25100); assay: Radioligand binding ([3H]prazosin) at cloned human α1d adrenergic receptor; settings: LM(tk-) cell membranes, read-out: Binding affinities (pKi) α1d (converted)
T2 construct: The entire coding region. of α1d (1719 bp); expressed in transfected cells
T2 sequence (P25100 1-572): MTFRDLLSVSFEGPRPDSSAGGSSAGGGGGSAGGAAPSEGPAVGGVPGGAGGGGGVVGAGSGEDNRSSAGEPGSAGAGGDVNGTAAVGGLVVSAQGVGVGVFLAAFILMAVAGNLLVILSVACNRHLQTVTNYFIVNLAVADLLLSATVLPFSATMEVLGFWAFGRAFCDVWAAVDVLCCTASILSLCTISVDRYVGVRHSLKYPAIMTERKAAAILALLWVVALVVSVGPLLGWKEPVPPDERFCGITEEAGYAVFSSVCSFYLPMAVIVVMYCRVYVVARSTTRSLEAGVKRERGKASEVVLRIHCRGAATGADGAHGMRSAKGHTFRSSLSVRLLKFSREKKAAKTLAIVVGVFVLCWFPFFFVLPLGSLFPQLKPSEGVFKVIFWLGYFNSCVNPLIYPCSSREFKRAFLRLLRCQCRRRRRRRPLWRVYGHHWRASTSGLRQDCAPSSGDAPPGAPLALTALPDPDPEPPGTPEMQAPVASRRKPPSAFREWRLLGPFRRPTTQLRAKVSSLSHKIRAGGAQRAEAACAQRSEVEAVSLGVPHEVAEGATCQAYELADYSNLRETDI
Procedure: as §1, §2
α1d Human Adrenergic Receptor: The entire coding region. of α1d (1719 bp), including 150 base pairs of 5′ untranslated sequence (5′ UT) and 300 bp of 3′ untranslated sequence (3′ UT), was cloned into the BamHI and ClaI sites of the polylinker-modified eukaryotic expression vector pCEXV-3, called EXJ.HR. The construct involved the ligation of partial overlapping human lymphocyte genomic and hippocampal cDNA clones: 5′ sequence were contained on a 1.2 kb SmaI-XhoI genomic fragment (the vector-derived BamHI site was used for subcloning instead of the internal insert-derived SmaI site) and 3′ sequences were contained on a 1.3 kb XhoI-ClaI cDNA fragment (the ClaI site was from the vector polylinker). Stable cell lines were obtained by cotransfection with the plasmid α1A/EXJ (expression vector containing the α1a receptor gene (old nomenclature)) and the plasmid pGCcos3neo (plasmid containing the aminoglycoside transferase gene) into LM(tk-) cells using the calcium phosphate technique. The cells were grown, in a controlled environment (37° C., 5% CO2), as monolayers in Dulbecco's modified Eagle's Medium (GIBCO, Grand Island, N.Y.) containing 25 mM glucose and supplemented with 10% bovine calf serum, 100 units/ml penicillin g, and 100 μg/ml streptomycin sulfate. Stable clones were then selected for resistance to the antibiotic G-418 (1 mg/ml), and membranes were harvested and assayed for their ability to bind [^3H]prazosin as described below (see Radioligand Binding assays).
The cell line expressing the human α1d receptor used herein was designated L-α1A (old nomenclature) and was deposited with the American Type Culture Collection, 12301 Parklawn Drive, Rockville, Md. 20852, U.S.A. under the provisions of the Budapest Treaty for the International Recognition of the Deposit of Microorganisms for the Purposes of Patent Procedure. The cell line expressing the human α1d receptor, was accorded ATCC Accession No. CRL 11138, and was deposited on Sep. 25, 1992.
Radioligand Binding Assays for α1 Human Adrenergic Receptors: Transfected cells from culture flasks were scraped into 5 ml of 5 mM Tris-HCl, 5 mM EDTA, pH 7.5, and lysed by sonication. The cell lysates were centrifuged at 1000 rpm for 5 min at 4° C., and the supernatant was centrifuged at 30,000×g for 20 min at 4° C. The pellet was suspended in 50 mM Tris-HCl, 1 mM MgCl2, and 0.1% ascorbic acid at pH 7.5. Binding of the α1, antagonist [^3H]prazosin (0.5 nM, specific activity 76.2 Ci/mmol) to membrane preparations of LM(tk-) cells was done in a final volume of 0.25 ml and incubated at 37° C. for 1 hour. Nonspecific binding was determined in the presence of 10 μM phentolamine. The reaction was stopped by filtration through GF/B filters using a cell harvester.

Structure (SMILES)	Ki (human 5-HT1a receptor)	Ki [1]
O=C1CC2(CCCC2)CC(=O)N1CCN1CCN(c2cc(F)ccc2F)CC1 [Compound 6, 8-{2-[4-(2,5-Difluorophenyl)piperazin-1-yl]ethyl}-8-azaspiro[4.5]decane-7,9-dione]	25.1 nM	1 nM
O=C1CC2(CCCC2)CC(=O)N1CCN1CCN(c2cc(F)c(F)cc2F)CC1 [Compound 7, 8-{2-[4-(2,4,5-Trifluorophenyl)piperazin-1-yl]ethyl}-8-azaspiro[4.5]decane-7,9-dione]	398 nM	2 nM
C[C@H](CN1CCN(c2cc(F)ccc2F)CC1)N1C(=O)CC2(CCCC2)CC1=O [Compound 8, 8-{(1R)-2-[4-(2,5-Difluorophenyl)piperazin-1-yl]-1-methylethyl}-8-azaspiro[4.5]decane-7,9-dione]	50.1 nM	0.794 nM
C[C@@H](CN1CCN(c2cc(F)ccc2F)CC1)N1C(=O)CC2(CCCC2)CC1=O [Compound 10, 8-{(1S)-2-[4-(2,5-Difluorophenyl)piperazin-1-yl]-1-methylethyl}-8-azaspiro[4.5]decane-7,9-dione]	2510 nM	50.1 nM
COc1ccc(F)cc1C1CCN(CCN2C(=O)CC3(CCCC3)CC2=O)CC1 [Compound 12, 8-{2-[4-(5-Fluoro-2-methoxyphenyl)piperidin-1-yl]ethyl}-8-azaspiro[4.5]decane-7,9-dione]	7.94 nM	1 nM

Second part, the molecule after the results:

Ki (human 5-HT1a receptor)	Ki [1]	Structure (SMILES)
251 nM	39.8 nM	Cc1ccc(Cl)cc1N1CCN(CCN2C(=O)CC3(CCCC3)CC2=O)CC1 [Compound 13, 8-{2-[4-(5-Chloro-2-methylphenyl)piperazino]ethyl}-8-azaspiro [4.5]decane-7,9-dione]
7.94 nM	3.98 nM	O=C1CC2(CCCC2)CC(=O)N1CCN1CCN(c2c(F)cccc2F)CC1 [Compound 14, 8-{2-[4-(2,6-Difluorophenyl)piperazino]ethyl}-8-azaspiro[4.5]decane-7,9-dione]
50.1 nM	7.94 nM	O=C1CC2(CCCC2)CC(=O)N1CCN1CCN(c2ccc(F)c(F)c2)CC1 [Compound 15, 8-{2-[4-(3,4-Difluorophenyl)piperazin-1-yl]ethyl}-8-azaspiro[4.5]decane-7,9-dione]
